According to publication PMC10298512, “Synthesis and Anticancer Evaluation of Novel 7-Aza-Coumarine-3-Carboxamides” (International Journal of Molecular Sciences, 2023):

Columns and labels:
Assay type in all cases: cell-based, human
HuTu 80 = experiment: MTT cytotoxicity test, HuTu 80 cells
Chang liver = experiment: MTT cytotoxicity test, normal Chang liver cells; conditions: Homo sapiens, Chang liver, 24 h incubation, tested at 1–100 µM, three independent experiments, read-out: IC50 (µM) Normal Cell Lines Chang Liver
HuTu 80 cells [1] = experiment: Cell apoptosis analysis by flow cytometry (annexin V-Alexa Fluor 647 / propidium iodide); conditions: HuTu 80, IC50/2 and IC50 concentrations, 24-h incubation
Description: Induction of apoptosis is one of the most important mechanisms of anticancer activity. The apoptosis-inducing effect in HuTu 80 cells was studied by flow cytometry using sets of annexin V binding to the apoptosis marker phosphatidylserine. On the surface of the membranes of healthy cells, phosphatidylserine is contained in a minimal amount. Therefore, the interaction of annexin V with these cells is negligible. During apoptosis, phosphatidylserine molecules appear on the cell surface and can interact with the protein. This interaction leads to an increase in the fluorescence intensity of apoptotic cells, which is recorded by a flow cytometer. The apoptosis-inducing effect was evaluated using the example of the leader compound 7r at IC50/2 and IC50 concentrations on the HuTu 80 cell line (Figure 1).
(§1) Cell Culture. HuTu 80 cells at 1 × 10^6 cells/well in a final volume of 2 mL were seeded into six-well plates.
Cell Apoptosis Analysis. […] The cells were harvested at 2000 rpm for 5 min and then washed twice with ice-cold PBS, followed by resuspension in binding buffer. Next, the samples were incubated with 5 μL of annexin V- Alexa Fluor 647 (Sigma-Aldrich, St. Louis, MO, USA) and 5 μL of propidium iodide (Sigma-Aldrich, St. Louis, MO, USA) for 15 min at room temperature in the dark. Finally, the cells were analyzed using flow cytometry (Guava easy Cyte, MERCK, Darmstadt, Germany) within 1 h. […]

HuTu 80 cells [2] = experiment: Mitochondrial membrane potential by flow cytometry (JC-10); conditions: HuTu 80, IC50/2 and IC50 concentrations, 24-h incubation
Description: Violation of the functions of the mitochondria of the cell is one of the most common signs of apoptosis inherent in eukaryotic organisms. With mitochondrial dysfunction, pro-apoptotic factors are released into the cytoplasm—cytochrome c, AIF, Smac/DIABLO, endonuclease G, as well as proforms of caspases 2, 3, and 9—inducing the cascade. The release of these protein factors can be associated both with the rupture of mitochondrial membranes and with the activation of specific channels in the outer mitochondrial membrane. This usually leads to a change in the mitochondrial membrane potential (ΔΨm) due to a change in the permeability of the inner mitochondrial membrane for H+ protons. […] The principle of operation of these dyes is determined by their ability to spontaneously penetrate through the cytoplasmic membranes of cells, as well as the outer and inner membranes of mitochondria and accumulate in areas with a high concentration of protons, that is, under the inner mitochondrial membrane. This effect is accompanied by a change in the intensity of cell fluorescence, which is recorded by cytofluorimetry. […] JC-10 accumulates in the mitochondrial matrix and forms aggregates (J-aggregates) with red fluorescence in normal cells with a high mitochondrial membrane potential. […]

HuTu 80 cells [3] = experiment: Detection of intracellular ROS by flow cytometry (CellROX Deep Red); conditions: for Fluorescence intensity (CellROX Deep Red, ROS production): 24 h
Description: Increased generation of reactive oxygen species (ROS) by the test compounds can also characterize the development of apoptosis along the mitochondrial pathway. Mitochondria are both a potential source and target of ROS. An increase in ROS production leads to the disruption of mitochondrial functions and, subsequently, to irreversible damage and cell death. In this regard, the effect of lead compound 7r at IC50/2 and IC50 concentrations on ROS production in HuTu 80 cells was investigated using a flow cytometry assay and the CellROX® Deep Red flow cytometry kit. […] This indicates an increase in ROS production in the presence of the test compound.
as §1
ROS generation was investigated using a flow cytometry assay and CellROX® Deep Red flow cytometry kit. For this, […] cells were harvested at 2000 rpm for 5 min and then washed twice with ice-cold PBS, followed by resuspension in 0.1 mL of medium without FBS, to which we added 0.2 μL of CellROX® Deep Red (Thermo Fisher Scientific, Waltham, MA, USA) and incubated at 37 °C for 30 min After three times washing the cells and suspending them in PBS, the production of ROS in the cells was immediately monitored using flow cytometer Guava easy Cyte, MERCK).

M-HeLa = experiment: MTT cytotoxicity test, M-HeLa cells; conditions: Homo sapiens, M-HeLa, 24 h incubation, tested at 1–100 µM, three independent experiments, read-out: IC50 (µM) Cancer Cell Lines M-HeLa

## Cc1ncc(CCl)c2cc(C(=O)Nc3ccc(S(=O)(=O)c4ccc(NC(=O)c5cc6c(CCl)cnc(C)c6oc5=O)cc4)cc3)c(=O)oc12 [7r, N,N′-(Sulfonylbis(4,1-phenylene))bis(5-(chloromethyl)-8-methyl-2-oxo-2H-pyrano[2,3-c]pyridine-3-carboxamide)]
HuTu 80; Homo sapiens, HuTu80, MTT test, 24 h incubation, tested at 1–100 µM, three independent experiments, read-out: IC50 (µM) Cancer Cell Lines HuTu 80
  IC50: 5.5 ± 0.4 µM
HuTu 80; normal Chang liver vs HuTu 80
  selectivity index, SI = IC50(Chang liver)/IC50(HuTu 80): 14
Chang liver
  IC50: 78 ± 5.9 µM
HuTu 80 cells [1]
  apoptosis-inducing effect (in words): apoptotic effects were registered
HuTu 80 cells [2]
  change in mitochondrial membrane potential (in words): decrease in the mitochondrial membrane potential
HuTu 80 cells [3]; HuTu 80, 2.8 µM (IC50/2)
  Fluorescence intensity (CellROX Deep Red, ROS production): 1400
HuTu 80 cells [3]; HuTu 80, 5.5 µM (IC50)
  Fluorescence intensity (CellROX Deep Red, ROS production): 1700
HuTu 80 cells [3]; HuTu 80, IC50/2 and IC50 concentrations
  ROS production vs control (in words): significant increase
M-HeLa
  IC50: 64.5 ± 4.5 µM
